Patent US20250367163A1, “PHARMACEUTICAL COMPOSITION FOR PREVENTING OR TREATING DEGENERATIVE EYE DISEASES” (GLACEUM, INC., priority 2021, published 2025)

Key:
[1] = tested on: mitochondrial reactive oxygen species in RPE cells; assay: Mitochondrial reactive oxygen species (MitoSOX) in RPE cells from Alu-RNA animal model (dry-AMD); format: in vivo, mouse; conditions: oral, from 6 days before and for 7 days after induction of dry-AMD
Source text: (§1) RPE cells were isolated from the same model as in Experimental […] changes in mitochondrial reactive oxygen species in the RPE cells were examined through fluorescence microscopy. Specifically, immediately after enucleation of the mouse eye, mitochondria and nuclei were stained using the MitoSOX™ (Invitrogen, #M36008) kit and imaged with a fluorescence microscope at a fluorescence wavelength of 510/580 nm, and changes in reactive oxygen species in the mitochondria were measured.
(§2) Male C57BL/6 mice were anesthetized, and a lesion was induced by making a hole in the corneal limbus of the mouse eye and injecting 1.2 μg of Alu-RNA into the subretinal space by a Hamilton syringe. Each of Compound 1-2 and Compound 1-18 was administered orally starting from 6 days before induction of the dry-AMD model, and was administered orally for 7 days after induction of the disease. To evaluate the dry-AMD preventive and therapeutic effects of each of Compound 1-2 and Compound 1-18, the morphology of the lesion was evaluated by fundus photography using TOPCON #TRC-50DX.
RPE cells were isolated from the same model as in Experimental Example 9 and stained with MitoSOX, and changes in mitochondrial reactive oxygen species in the RPE cells were examined through fluorescence microscopy. Measurement was performed in the same manner as in Experimental Example 2.

[2] = tested on: lesion in the eyeball, Alu-RNA dry-AMD model; assay: Fundus photography of eyeball lesion in Alu-RNA animal model (dry-AMD); format: in vivo, mouse; conditions: oral, from 6 days before and for 7 days after induction of dry-AMD (1.2 μg Alu-RNA subretinal)
Experimental: as §2

[3] = tested on: inflammation-related mRNA in RPE cells; assay: Inflammatory factor mRNA (real-time PCR) in RPE cells from Alu-RNA animal model (dry-AMD); format: in vivo, mouse; conditions: oral, from 6 days before and for 7 days after induction of dry-AMD
Experimental: as §2
RPE cells were isolated from the same model as in Experimental Example 9, and the relative expression level of inflammation-related mRNA was analyzed using real-time PCR. […] 100 pmol of oligo Dt17 primer was added to 1 μg of total RNA which was then incubated at 74° C. for 10 minutes, and then 30 U of RNAsin (RNase inhibitor), 10 U of AMV-RT (avian myeloblastosis virus-reverse transcriptase), and AMV-RT buffer (Promega, Israel) were added thereto and reacted at 42° C. for 2 hours and at 52° C. for 1 hour, thereby synthesizing cDNA from the RNA extracted from the […]. cDNA was amplified using the SYBR Premix Ex Taq kit (Takara Bio, Inc.) and the StepOnePlus Real-time PCR system (Applied Biosystems), and then mRNA expression was measured.

[4] = tested on: retinal lesion (wet-AMD) induced by laser photocoagulation; assay: Lesion volume in laser-induced CNV wet-AMD mouse model (FITC-dextran, Z-stack 3D imaging); format: in vivo; conditions: for efficacy on lesion compared with positive control anti-VEGF agent (FIG. 1) / lesion formation / lesion volume (FIG. 1): oral, from 6 days before and for 7 days after inducing wet-AMD; for efficacy on lesion compared with positive control anti-VEGF agent (FIG. 1): Eylea injected into the eye as positive control; for lesion formation / lesion volume (FIG. 1): male C57BL/6 mice
Experimental: Male C57BL/6 mice were anesthetized with zoletil and rompun, and a retinal lesion (wet-AMD) was induced by performing three laser photocoagulations at the 2 o'clock, 6 o'clock, and 10 o'clock positions at on the retina of the mouse eye under a slit-lamp microscope. Each of Compound 1-2 and Compound 1-18 was administered orally starting from 6 days before inducing wet-AMD, and was administered orally for 7 days after inducing the disease. Eylea (Bayer, Germany), used as a positive control, was administered by direct injection into the eye immediately after induction of the disease model.
After weighing each mouse, FITC-dextran (SIGMA, #46944) diluted in saline at a concentration of 5 mg/kg was injected into the tail veins of the mice to which each of Compound 1-2 and Compound 1-18 has been administered for 7 days after inducing the wet-AMD model. 3D images of the lesions were obtained using the Z-stack imaging technique, and the volumes of the lesions on the images were quantitatively measured.
(§3) Changes after administering Compound 1-2 for 7 days after induction of the disease without administration before induction of the disease to the wet-AMD mouse model induced in the same manner as in Experimental Example 1 were analyzed. In the same manner as Experimental Example 1, the image of the lesion was obtained and the volume of the lesion was quantified.
as §3, with “co-administering” for “administering”, “1-2 and the anti-VEGF agent (Eylea)” for “1-2”
as §3, with “1-2 at concentrations of 25, 50 and 100 mg/kg” for “1-2”, “administration of Compound 1-2” for “administration”

[5] = tested on: mitochondrial reactive oxygen species in RPE cells; assay: Mitochondrial reactive oxygen species (MitoSOX) in RPE cells from wet-AMD (CNV) animal model; format: in vivo, mouse; conditions: for mitochondrial reactive oxygen species in RPE cells (FIG. 2) / efficacy on mitochondrial reactive oxygen species compared with positive control anti-VEGF agent (FIG. 2): oral, from 6 days before and for 7 days after inducing wet-AMD; for efficacy on mitochondrial reactive oxygen species compared with positive control anti-VEGF agent (FIG. 2): Eylea as positive control
Source text: as §1
RPE cells were isolated from the same model as in Experimental Example 3 and stained with MitoSOX, and changes in mitochondrial reactive oxygen species in the RPE cells were examined through fluorescence microscopy. Measurement was performed in the same manner as in Experimental Example 2.
RPE cells were isolated from the same model as in Experimental Example 5 and stained with MitoSOX, and changes in mitochondrial reactive oxygen species in the RPE cells were examined through fluorescence microscopy. Measurement was performed in the same manner as in Experimental Example 2.
RPE cells were isolated from the same model as in Experimental Example 7 and stained with MitoSOX, and changes in mitochondrial reactive oxygen species in the RPE cells were examined through fluorescence microscopy. Measurement was performed in the same manner as in Experimental Example 2.

RPE cytoskeleton = assay: RPE cell structure (ZO-1 staining) in Alu-RNA animal model (dry-AMD); format: in vivo, mouse; conditions: oral, from 6 days before and for 7 days after induction of dry-AMD
Experimental: as §2
RPE cells were isolated from the same model as in Experimental Example 9 and stained for ZO-1, and changes in the structure of the RPE cells were examined under a fluorescence microscope (Olympus SZ51, Tokyo, Japan). Specifically, immediately after enucleation of the mouse eye, the RPE cytoskeleton was stained for zonula occludens-1 (ZO-1) and imaged with a fluorescence microscope through the Z-stack imaging technique, and changes in the RPE cytoskeleton were imaged.

[6] = 25, 50 and 100 mg/kg for 7 days after induction of the disease
[7] = administered for 7 days after induction of the disease, none before induction

Compound	mitochondrial reactive oxygen species in RPE cells (FIG. 11) [1]	lesion in the eyeball by fundus photography (FIG. 9) [2]	inflammatory factors in RPE cells, relative mRNA expression (FIG. 12) [3]	lesion volume depending on concentration (FIG. 7) [4, 6]	efficacy on lesion compared with positive control anti-VEGF agent (FIG. 3) [4, 7]	lesion formation / lesion volume (FIG. 3) [4, 7]	efficacy on lesion compared with positive control anti-VEGF agent (FIG. 1) [4]	lesion formation / lesion volume (FIG. 1) [4]	efficacy in reducing mitochondrial reactive oxygen species at 100 mg/kg (FIG. 8) ([5]; 100 mg/kg versus 25 and 50 mg/kg, 7 days after induction of the disease)	mitochondrial reactive oxygen species in RPE cells depending on concentration (FIG. 8) [5, 6]	efficacy on mitochondrial reactive oxygen species compared with positive control anti-VEGF agent (FIG. 4) [5, 7]	mitochondrial reactive oxygen species in RPE cells (FIG. 4) [5, 7]	mitochondrial reactive oxygen species in RPE cells (FIG. 2) [5]	efficacy on mitochondrial reactive oxygen species compared with positive control anti-VEGF agent (FIG. 2) [5]	RPE cytoskeleton, ZO-1 staining (FIG. 10) (RPE cytoskeleton)
CCOc1ccc(C2COc3c(ccc4c3CCC(C)(C)O4)C2)c(O)c1 (stereo not shown) [Compound 1-2]	reduced mitochondrial reactive oxygen species	reduced the lesion in the eyeball	effectively reduced	reduced in a manner dependent on the concentration	efficacy equivalent to that of the positive control anti-VEGF agent	suppressed formation of the lesion	efficacy equivalent to that of the positive control anti-VEGF agent	inhibited lesion formation	highest efficacy	reduced mitochondrial reactive oxygen species in a concentration-dependent manner	efficacy equivalent to that of the positive control anti-VEGF agent	reduced mitochondrial reactive oxygen species	reduced mitochondrial reactive oxygen species	efficacy equivalent to that of the positive control anti-VEGF agent	restored the damaged RPE cytoskeleton
CCCOc1ccc([C@@H]2COc3c(ccc4c3CCC(C)(C)O4)C2)c(O)c1 [Compound 1-18]	reduced mitochondrial reactive oxygen species	reduced the lesion in the eyeball	–	–	–	–	efficacy equivalent to that of the positive control anti-VEGF agent	inhibited lesion formation	–	–	–	–	reduced mitochondrial reactive oxygen species	efficacy equivalent to that of the positive control anti-VEGF agent	restored the damaged RPE cytoskeleton
